Laboratory results reported in ChEMBL document CHEMBL1800001, “Biophysical mapping of the adenosine A2A receptor” (J Med Chem, 2011).

What was measured:
Adenosine receptor A2a [1] = biological target: T1, Adenosine receptor A2a (Homo sapiens, UniProt P29274); assay: Displacement of [3H]ZM241385 from wild type human adenosine receptor A2a expressed in HEK293 cells
Adenosine receptor A2a [2] = biological target: T1, Adenosine receptor A2a; assay: Displacement of [3H]ZM241385 from stabilized human adenosine receptor A2a expressed in HEK293 cells followed by receptor capturing on Biocore chips by SPR method

T1 sequence (P29274 whole entry, looked up): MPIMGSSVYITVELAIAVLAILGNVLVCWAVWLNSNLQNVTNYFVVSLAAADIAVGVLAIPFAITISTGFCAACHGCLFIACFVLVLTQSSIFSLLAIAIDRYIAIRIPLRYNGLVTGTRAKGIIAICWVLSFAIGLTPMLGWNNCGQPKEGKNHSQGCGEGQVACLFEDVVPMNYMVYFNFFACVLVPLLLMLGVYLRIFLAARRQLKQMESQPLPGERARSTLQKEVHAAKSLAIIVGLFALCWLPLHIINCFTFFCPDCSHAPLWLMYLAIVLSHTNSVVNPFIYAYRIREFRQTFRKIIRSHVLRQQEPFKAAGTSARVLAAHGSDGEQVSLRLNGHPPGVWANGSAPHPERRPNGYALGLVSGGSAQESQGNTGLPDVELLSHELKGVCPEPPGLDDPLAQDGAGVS

SMILES | pKi (Adenosine receptor A2a [1]) | pKd (Adenosine receptor A2a [2])
COCCOc1ccc(N2CCN(CCn3ncc4c3nc(N)n3nc(-c5ccco5)nc43)CC2)cc1 [PRELADENANT] | 8.8 | 9.5
CN1CCN(C(=O)c2cccc(-c3nc(N)nc(-c4ccccc4O)n3)c2)CC1 | 9 | 7.9
Nc1nc(-c2ccccc2O)nc(N2Cc3ccc(F)cc3C2)n1 | 7.9 | 6
